Experimental data as given in PMC3681608 (Nature chemical biology, 2010).
Where a name gives a salt, the structure may show the parent alone.

Columns and labels:
CK1ε = CK1ε (Homo sapiens, UniProt P49674); assay: fluorescence ligand dot blot with purified kinase at […] pyrvinium; assay type: binding
CK1γ1 = CK1γ1 (Homo sapiens, UniProt Q9HCP0); assay: as above; assay type: binding
Sequence of CK1γ1 (Q9HCP0 whole entry): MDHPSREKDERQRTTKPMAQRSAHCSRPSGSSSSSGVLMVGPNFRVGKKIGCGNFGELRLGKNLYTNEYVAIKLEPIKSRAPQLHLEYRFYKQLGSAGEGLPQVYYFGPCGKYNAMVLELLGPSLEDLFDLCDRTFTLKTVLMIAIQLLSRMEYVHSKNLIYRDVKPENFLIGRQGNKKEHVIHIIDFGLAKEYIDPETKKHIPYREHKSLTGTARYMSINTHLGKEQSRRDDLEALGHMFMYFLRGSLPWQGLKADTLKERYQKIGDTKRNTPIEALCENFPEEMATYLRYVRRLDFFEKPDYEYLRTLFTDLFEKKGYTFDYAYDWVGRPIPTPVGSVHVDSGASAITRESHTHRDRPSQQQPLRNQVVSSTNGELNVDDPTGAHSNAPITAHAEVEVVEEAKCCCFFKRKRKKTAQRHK

Sequence of CK1ε (P49674 whole entry): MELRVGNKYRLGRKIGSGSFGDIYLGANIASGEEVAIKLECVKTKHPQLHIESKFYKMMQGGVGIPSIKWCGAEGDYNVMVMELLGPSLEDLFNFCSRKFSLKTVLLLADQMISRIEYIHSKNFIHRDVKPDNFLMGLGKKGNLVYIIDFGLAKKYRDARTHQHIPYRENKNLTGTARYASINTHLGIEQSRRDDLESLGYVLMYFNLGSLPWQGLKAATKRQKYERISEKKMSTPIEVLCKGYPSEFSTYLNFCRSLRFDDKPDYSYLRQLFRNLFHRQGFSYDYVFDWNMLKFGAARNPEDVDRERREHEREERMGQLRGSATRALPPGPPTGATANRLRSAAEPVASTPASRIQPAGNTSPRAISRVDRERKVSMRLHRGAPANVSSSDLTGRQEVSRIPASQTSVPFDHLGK

Cc1cc(/C=C/c2ccc3cc(N(C)C)ccc3[n+]2C)c(C)n1-c1ccccc1 [compound 1, 6-(dimethylamino)-2-[2-(2,5-dimethyl-1-phenyl-1H-pyrrol-3-yl)ethenyl]-1-me thyl-quinolinium pamoate salt]
fluorescence ligand dot blot with purified kinase at 10 nM pyrvinium (CK1ε): Pyrvinium binds all full-length CK1 isoforms tested but only activates CK1α. | fluorescence ligand dot blot with purified kinase at 10 nM pyrvinium (CK1γ1): Pyrvinium binds all full-length CK1 isoforms tested but only activates CK1α.
